Measurements from patent US20250353855A1, “HETEROCYCLIC AND HETEROARYL COMPOUNDS FOR TREATING HUNTINGTON'S DISEASE” (PTC THERAPEUTICS, INC., priority 2022, published 2025).

Test system: Endogenous Huntingtin Protein
Assay: Endogenous Huntingtin Protein Assay (ELISA-based MSD electrochemiluminescence)
Assay type: cell-based
Conditions: MSD plates coated with MW1 (expanded polyglutamine) or MAB2166 capture antibody; lysates
Protocol: Compounds of Formula (T) were tested using the Meso Scale Discovery (MSD) Assay provided in International Application No. PCT/US2016/066042, filed on Dec. 11, 2016 and claiming priority to U.S. Provisional Application 62/265,652 filed on Dec. 10, 2015, the entire contents of which are incorporated herein by reference.
The Endogenous Huntingtin Protein assay used in Example 1 was developed using the ELISA-based MSD electrochemiluminescence assay platform.
Meso Scale Discovery (MSD) 96-well or 384-well plates were coated overnight at 4° C. with MW1 (expanded polyglutamine) or MAB2166 monoclonal antibody (for capture) at a concentration of 1 μg/mL in PBS (30 μL per well). Plates were then washed three times with 300 μL wash buffer (0.05% Tween-20 in PBS) and blocked (100 μL blocking buffer; 5% BSA in PBS) for 4-5 hours at room temperature with rotational shaking and then washed three times with wash buffer.
Samples (25 μL) were transferred to the antibody-coated MSD plate and incubated overnight at 4° C. After removal of the lysates, the plate was washed three times with wash buffer, and 25 μL of #5656S (Cell signaling; rabbit monoclonal) secondary antibody (diluted to 0.25 μg/mL in 0.05% Tween-20 in blocking buffer) was added to each well and incubated with shaking for 1 Hour at room temperature. Following incubation with the secondary antibody, the wells were rinsed with wash buffer after which 25 μL of goat anti-rabbit SULFO TAG secondary detection antibody (required aspect of the MSD system) (diluted to 0.25 μg/mL in 0.05% Tween-20 in blocking buffer) was added to each well and incubated with shaking for 1 hour at room temperature. After rinsing three times with wash buffer, 150 μL of read buffer T with surfactant (MSD) were added to each empty well, and the plate was imaged on a SI 6000 imager (MSD) according to manufacturers' instructions provided for 96- or 384-well plates.

Structure (SMILES) | IC50
COc1nc2cc(O)c(-c3cc4ccn([C@H]5CC(C)(C)NC(C)(C)[C@H]5F)c4nn3)cc2o1 [Cpd 25, 6-{7-[(3S,4S)-3-fluoro-2,2,6,6-tetramethylpiperidin-4-yl]-7H-pyrrolo[2,3-c]pyridazin-3-yl}-2-methoxy-1,3-benzoxazol-5-ol] | < 100 nM
Cc1nc2cc(O)c(-c3cc4ccn([C@@H]5CCNC(C)(C)[C@@H]5F)c4nn3)cc2s1 [Cpd 19, 6-{7-[(3R,4R)-3-fluoro-2,2-dimethylpiperidin-4-yl]-7H-pyrrolo[2,3-c]pyridazin-3-yl}-2-methyl-1,3-benzothiazol-5-ol] | < 100 nM

Same assay, conditions: MSD plates coated with MW1 (expanded polyglutamine) or MAB2166 capture antibody; lysates; read-out: IC50

Structure (SMILES) | IC50
Cc1cnc2cc(O)c(-c3cc4c(nn3)N([C@H]3CC(C)(C)NC(C)(C)[C@H]3F)CC4)cc2n1 [Cpd 55, 7-{7-[(3S,4S)-3-fluoro-2,2,6,6-tetramethylpiperidin-4-yl]-6,7-dihydro-5H-pyrrolo[2,3-c]pyridazin-3-yl}-2-methylquinoxalin-6-ol] | < 100 nM
Cc1nc2cc(O)c(-c3cc4c(nn3)N([C@@H]3CCNC(C)(C)[C@@H]3F)CC4)cc2o1 (single isomer, unassigned) [Cpd 64, 6-{7-[(3R,4R)-3-fluoro-2,2-dimethylpiperidin-4-yl]-6,7-dihydro-5H-pyrrolo[2,3-c]pyridazin-3-yl}-2-methyl-1,3-benzoxazol-5-ol or 6-{7-[(3S,4S)-3-fluoro-2,2-dimethylpiperidin-4-yl]-6,7-dihydro-5H-pyrrolo[2,3-c]pyridazin-3-yl}-2-methyl-1,3-benzoxazol-5-ol] | < 100 nM
O=C1CCc2cc(-c3cc4c(nn3)N([C@H]3CCNC5(CC5)C3)CC4)c(O)cc21 [Cpd 57, 5-{7-[(7S)-4-azaspiro[2.5]octan-7-yl]-6,7-dihydro-5H-pyrrolo[2,3-c]pyridazin-3-yl}-6-hydroxy-2,3-dihydro-1H-inden-1-one] | 100 to 500 nM
CC1(C)CC(n2nnc3cc(-c4cc5c(cc4O)C(=O)CC5)nnc32)CC(C)(C)N1 [Cpd 1, 6-hydroxy-5-[3-(2,2,6,6-tetramethylpiperidin-4-yl)-3H-[1,2,3]triazolo[4,5-c]pyridazin-6-yl]-2,3-dihydro-1H-inden-1-one] | 1000 to 3000 nM
Cc1nc2cc(O)c(-c3cc4nnn(C5CC(C)(C)NC6(CC6)C5)c4nn3)cc2s1 (stereo not shown) [Cpd 12, 6-[3-(5,5-dimethyl-4-azaspiro[2.5]octan-7-yl)-3H-[1,2,3]triazolo[4,5-c]pyridazin-6-yl]-2-methyl-1,3-benzothiazol-5-ol] | < 100 nM
Cc1cc(=O)c2cc(O)c(-c3cc4c(nn3)N([C@H]3CC(C)(C)NC(C)(C)[C@H]3F)CC4)cc2o1 [Cpd 83, 7-{7-[(3S,4S)-3-fluoro-2,2,6,6-tetramethylpiperidin-4-yl]-6,7-dihydro-5H-pyrrolo[2,3-c]pyridazin-3-yl}-6-hydroxy-2-methyl-4H-1-benzopyran-4-one] | < 100 nM
Cc1cnc2cc(-c3cc4c(nn3)N([C@H]3CC(C)(C)NC(C)(C)[C@H]3F)CC4)c(O)cc2c1 [Cpd 75, 7-{7-[(3S,4S)-3-fluoro-2,2,6,6-tetramethylpiperidin-4-yl]-6,7-dihydro-5H-pyrrolo[2,3-c]pyridazin-3-yl}-3-methylquinolin-6-ol] | < 100 nM
Cc1nc2cc(O)c(-c3cc4c(nn3)N([C@H]3CCNC5(CC5)C3)CC4)cc2o1 [Cpd 43, 6-{7-[(7S)-4-azaspiro[2.5]octan-7-yl]-6,7-dihydro-5H-pyrrolo[2,3-c]pyridazin-3-yl}-2-methyl-1,3-benzoxazol-5-ol] | < 100 nM
Cc1nc2cc(-c3cc4ccn([C@H]5CC(C)(C)NC(C)(C)[C@H]5F)c4nn3)c(O)cc2s1 [Cpd 8, 5-{7-[(3S,4S)-3-fluoro-2,2,6,6-tetramethylpiperidin-4-yl]-7H-pyrrolo[2,3-c]pyridazin-3-yl}-2-methyl-1,3-benzothiazol-6-ol] | < 100 nM
Cn1nc2cc(O)c(-c3cc4c(nn3)N([C@H]3CC(C)(C)NC(C)(C)[C@H]3F)CC4)cc2n1 [Cpd 88, 6-{7-[(3S,4S)-3-fluoro-2,2,6,6-tetramethylpiperidin-4-yl]-6,7-dihydro-5H-pyrrolo[2,3-c]pyridazin-3-yl}-2-methyl-2H-benzotriazol-5-ol] | < 100 nM
Cn1nnc2cc(O)c(-c3cc4ccn([C@H]5CC(C)(C)NC(C)(C)[C@H]5F)c4nn3)cc21 [Cpd 42, 6-{7-[(3S,4S)-3-fluoro-2,2,6,6-tetramethylpiperidin-4-yl]-7H-pyrrolo[2,3-c]pyridazin-3-yl}-1-methyl-1H-benzotriazol-5-ol] | < 100 nM
Cc1nc2cc(O)c(-c3cc4c(nn3)N([C@H]3CC(C)(C)NC(C)(C)[C@H]3F)CC4)cc2s1 [Cpd 52, 6-{7-[(3S,4S)-3-fluoro-2,2,6,6-tetramethylpiperidin-4-yl]-6,7-dihydro-5H-pyrrolo[2,3-c]pyridazin-3-yl}-2-methyl-1,3-benzothiazol-5-ol] | < 100 nM
CC1(C)C[C@H](n2ccc3cc(-c4cc5nc(C(F)(F)F)oc5cc4O)nnc32)[C@H](F)C(C)(C)N1 [Cpd 24, 5-{7-[(3S,4S)-3-fluoro-2,2,6,6-tetramethylpiperidin-4-yl]-7H-pyrrolo[2,3-c]pyridazin-3-yl}-2-(trifluoromethyl)-1,3-benzoxazol-6-ol] | 100 to 500 nM
Cc1cc(=O)oc2cc(O)c(-c3cc4c(nn3)N([C@@H]3C[C@H]5CC[C@H](N5)[C@@H]3F)CC4)cc12 (single isomer, unassigned) [Cpd 79, 6-{7-[(1S,2S,3R,5R)-2-fluoro-8-azabicyclo[3.2.1]octan-3-yl]-6,7-dihydro-5H-pyrrolo[2,3-c]pyridazin-3-yl}-7-hydroxy-4-methyl-2H-1-benzopyran-2-one or 6-{7-[(1R,2R,3S,5S)-2-fluoro-8-azabicyclo[3.2.1]octan-3-yl]-6,7-dihydro-5H-pyrrolo[2,3-c]pyridazin-3-yl}-7-hydroxy-4-methyl-2H-1-benzopyran-2-one] | < 100 nM
Cc1nc2cc(O)c(-c3cc4ccn([C@H]5CC(C)(C)NC(C)(C)[C@H]5F)c4nn3)cc2o1 [Cpd 3, 6-{7-[(3S,4S)-3-fluoro-2,2,6,6-tetramethylpiperidin-4-yl]-7H-pyrrolo[2,3-c]pyridazin-3-yl}-2-methyl-1,3-benzoxazol-5-ol] | < 100 nM
Cc1nc2cc(O)c(-c3cc4ccn([C@@H]5C[C@H]6CC[C@H](N6)[C@@H]5F)c4nn3)cc2s1 (single isomer, unassigned) [Cpd 22, 6-{7-[(1S,2S,3R,5R)-2-fluoro-8-azabicyclo[3.2.1]octan-3-yl]-7H-pyrrolo[2,3-c]pyridazin-3-yl}-2-methyl-1,3-benzothiazol-5-ol or 6-{7-[(1R,2R,3S,5S)-2-fluoro-8-azabicyclo[3.2.1]octan-3-yl]-7H-pyrrolo[2,3-c]pyridazin-3-yl}-2-methyl-1,3-benzothiazol-5-ol] | < 100 nM
CC1(C)C[C@H](N2CCc3cc(-c4cc5oc(=O)[nH]c5cc4O)nnc32)[C@H](F)C(C)(C)N1 [Cpd 86, 6-{7-[(3S,4S)-3-fluoro-2,2,6,6-tetramethylpiperidin-4-yl]-6,7-dihydro-5H-pyrrolo[2,3-c]pyridazin-3-yl}-5-hydroxy-1,3-benzoxazol-2(3H)-one] | < 100 nM
COc1cc(=O)oc2cc(O)c(-c3cc4c(nn3)N([C@H]3CC(C)(C)NC(C)(C)[C@H]3F)CC4)cc12 [Cpd 78, 6-{7-[(3S,4S)-3-fluoro-2,2,6,6-tetramethylpiperidin-4-yl]-6,7-dihydro-5H-pyrrolo[2,3-c]pyridazin-3-yl}-7-hydroxy-4-methoxy-2H-1-benzopyran-2-one] | < 100 nM
Cc1cc(=O)oc2cc(O)c(-c3cc4c(nn3)N([C@H]3CC(C)(C)NC(C)(C)[C@H]3F)CC4)cc12 [Cpd 65, 6-{7-[(3S,4S)-3-fluoro-2,2,6,6-tetramethylpiperidin-4-yl]-6,7-dihydro-5H-pyrrolo[2,3-c]pyridazin-3-yl}-7-hydroxy-4-methyl-2H-1-benzopyran-2-one] | < 100 nM
Cn1cc2cc(-c3cc4ccn([C@H]5CC(C)(C)NC(C)(C)[C@H]5F)c4nn3)c(O)c(F)c2n1 [Cpd 100, 7-fluoro-5-{7-[(3S,4S)-3-fluoro-2,2,6,6-tetramethylpiperidin-4-yl]-7H-pyrrolo[2,3-c]pyridazin-3-yl}-2-methyl-2H-indazol-6-ol] | < 100 nM
Cc1nc2cc(-c3cc4ncn([C@H]5CC(C)(C)NC6(CC6)C5)c4nn3)c(O)cc2o1 [Cpd 23, 5-{7-[(7S)-5,5-dimethyl-4-azaspiro[2.5]octan-7-yl]-7H-imidazo[4,5-c]pyridazin-3-yl}-2-methyl-1,3-benzoxazol-6-ol] | 100 to 500 nM
CC1(C)C[C@H](N2CCc3cc(-c4cc5nccnc5cc4O)nnc32)[C@H](F)C(C)(C)N1 [Cpd 45, 7-{7-[(3S,4S)-3-fluoro-2,2,6,6-tetramethylpiperidin-4-yl]-6,7-dihydro-5H-pyrrolo[2,3-c]pyridazin-3-yl}quinoxalin-6-ol] | < 100 nM
CC1(C)C[C@H](N2CCc3cc(-c4cc5cccnc5cc4O)nnc32)[C@H](F)C(C)(C)N1 [Cpd 53, 6-{7-[(3S,4S)-3-fluoro-2,2,6,6-tetramethylpiperidin-4-yl]-6,7-dihydro-5H-pyrrolo[2,3-c]pyridazin-3-yl}quinolin-7-ol] | < 100 nM
